Laboratory results: patent US20050176735A1, “Polymorphs of zaleplon and methods for the preparation thereof” (priority 2000, published 2005)

Columns and labels:
[1] = Solid-state stability on storage at controlled temperature and relative humidity or on heating; conditions: for Stability on storage (form conversion): about 60° C. and about 75% relative humidity; for Stability on heating (form conversion): heated at about 80° C.
[2] = Moisture adsorption/desorption isotherm (moisture balance); type: physicochemical; conditions: for Hygroscopicity from moisture adsorption/desorption curves: 25° C., 5 to 95% relative humidity
Description: Moisture adsorption; desorption data were collected on a VTI SGA-100 moisture balance system. available from VTI Corporation of Hialeah, Fla. For adsorption isotherms an adsorption range of 5 to 95% relative humidity and a desorption range of 95 to 5% relative humidity in 10% relative humidity increments were used for analysis. The samples were not dried prior to analysis. Equilibrium criteria used for analysis were less than 0.0100 weight percent change in 5 minutes with a maximum equilibration time of 3 hours if the weight criterion was not met. Data were not corrected for the initial moisture content of-the samples.

[3] = Relative solubility in water

Compound | Relative stability versus the other forms ([1]; absence of water) | General stability to humidity and temperature ([1]; broad range of humidity and temperature conditions) | Hygroscopicity from moisture adsorption/desorption curves [2] | Solubility in water relative to the other form [3] | Stability on storage ([1]; about 40° C. and about 75% relative humidity for 4 weeks) | Stability on storage (form conversion) ([1]; 4 weeks (same time period)) | Stability on heating (form conversion) [1] | Form conversion in solvent (solvent system containing an organic solvent and optionally water) | Form conversion in water (water) | Stability on storage of hydrates (form conversion) ([1]; about 40° C. and about 75% relative humidity, time not stated) | Stability on storage (form conversion) ([1]; time not stated) | Relative humidity up to which the form is generally anhydrous ([2]; relative humidity) | Relative stability in aqueous and non-aqueous environments (aqueous and non-aqueous environments)
CCN(C(C)=O)c1cccc(-c2ccnc3c(C#N)cnn23)c1 [Form I, N-[3-(3-cyanopyrazolo[1,5a]pyrimidin-7-yl)phenyl]-N-ethylacetamide] | more stable than Forms II and III | stable | non-hygroscopic | – | – | – | – | – | – | – | – | – | –
CCN(C(C)=O)c1cccc(-c2ccnc3c(C#N)cnn23)c1 [Form II, N-[3-(3-cyanopyrazolo[1,5a]pyrimidin-7-yl)phenyl]-N-ethylacetamide] | – | – | moisture content of Form II of zaleplon varies depending on the relative humidity of its environment | mole soluble in water than Form III | stable | converts into Form I | converts into Form I | converts into Form III | converted into Form III | – | – | – | –
CCN(C(C)=O)c1cccc(-c2ccnc3c(C#N)cnn23)c1 [Form III, N-[3-(3-cyanopyrazolo[1,5a]pyrimidin-7-yl)phenyl]-N-ethylacetamide] | – | – | – | – | – | – | converts to Form I | – | – | resulting in a mixture of Forms II and III | converts to Form I | about 30% | more stable in aqueous and non-aqueous environments than Form II
